According to the NIST ThermoML archive (doi:10.1016/j.tca.2018.10.027):
Values joined by “and” are separate entries in the source; they are usually repeats but may differ in a detail not shown here. Equal entries are not always repeated.

Conditions: Liquid, Calculated from knudsen effusion weight loss

[Ag+].[Br-] [silver bromide]
Conditions	vapor or sublimation pressure
829.9 K	0.000109 kPa [middle of 4 runs]
849.9 K	0.000184 kPa [middle of 4 runs]
869.9 K	0.000316 kPa [middle of 4 runs]
889.9 K	0.00057 kPa and 0.000464 kPa and 0.000529 kPa
890 K	0.000602 kPa
909.9 K	0.000855 kPa and 0.000958 kPa and 0.000842 kPa
910 K	0.001143 kPa
929.9 K	0.001712 kPa [middle of 4 runs]
